Source: US11573241B2, “Total cellular iron as a marker of cancer stem cells and uses thereof” (Institut National de la Sante et de la Recherche Medicale …, priority 2016, dated 2023)

Assays:
[1] = format: physicochemical
From the text: FIG. 1. Salinomycin and AM5 sequester iron in lysosomes and trigger ferritin degradation. a, Chemical strategy to visualize small molecules in cells. b, Fluorescence microscopy images of U2OS cells showing the subcellular localization of labeled Sal derivatives AM4, AM5, and AM9. Lysotracker Deep Red stains the lysosomes and 4′,6-diamidino-2-phenylindole (DAPI) stains nuclear DNA. Scale bar, 10 μm. Zoom corresponds to ×6. c, Live cell fluorescence microscopy images showing the subcellular localization of iron(II) using the fluorogenic reduction of RhoNox-1 (green) in HMLER CD24^low cells treated with Sal or AM5 or AM9 (0.5 μM) for 48 h. Lysotracker deep red stains the lysosomes (red) and DAPI stains nuclear DNA (blue). Scale bar, 10 μm. d, Fixed cell fluorescence microscopy images showing the subcellular localization of iron(II) using the fluorogenic reduction of RhoNox-1 (green) in HMLER CD24^low cells treated with Sal or AM5 or AM9 (0.5 μM) for 48 h. e, Quantification of lysotracker-positive vesicles colocalizing with RhoNox-1 in fixed cells was carried out by means of visual inspection. At least 75 cells were counted per condition. Data represent three independent biological replicates (n=number of lysotracker vesicles). […] Spectra were recorded in CD3CN. […] For k and I, Samples prepared in CD3OD, spectra recorded at 298 K, 5 min following sample preparation (600 MHz). […]

[2] = tested on: HMLER CD24^low and iCSCL-10A2 cells; test: Intracellular GSH level quantification; format: cell-based; conditions: 0.5 μM
Description: Intracellular GSH level quantification. Cells were treated with Sal or AM5 (0.5 μM) as indicated, then harvested and counted. The intracellular GSH level was measured using a commercial kit (ab205811, Abcam) according to the manufacturer's protocol.

HMLER CD24^low cells = test: Lysosomal membrane permeabilization assay; format: cell-based, human; conditions: 48 h
Description: Lysosomal membrane permeabilization assay. Lysosomal membrane permeabilization (LMP) was assessed by monitoring the release of FITC-Dextran (FD10S, 10 kDa, Sigma) from lysosomes. In brief, cells were incubated with 1 mg/mL FITC-Dextran for 2 h at 37° C. Cells were washed, chased with culture medium for 2 h and treated as indicated for 48 h or with CQ (positive control) for 3 h. Cells were then fixed with 2% formaldehyde/PBS, washed with PBS, mounted and acquired with a 60×APO TIRF oil immersion objective of Nipkow Spinning Disk confocal system.

C#CCN[C@@H]1C=C[C@]2(O[C@H]([C@@H](CC)C(=O)[C@@H](C)[C@@H](O)[C@H](C)C3O[C@@H](C(CC)C(=O)O)CC[C@@H]3C)[C@@H](C)C[C@H]2C)O[C@@]12CC[C@@](C)([C@H]1CC[C@](O)(CC)[C@H](C)O1)O2 (stereo partly drawn) [AM5, Sal-Propargylamine]
stability in the presence of iron(II) over time [1]: stable
endogenous levels of GSH [2]: diminution of endogenous levels of the ROS scavenger glutathione (GSH)
lysosomal membrane permeabilization (release of lysosomal dextran) (HMLER CD24^low cells): induced a permeabilization of the lysosomal membrane

CC[C@@H](C(=O)[C@@H](C)[C@@H](O)[C@H](C)[C@@H]1O[C@@H]([C@@H](CC)C(=O)O)CC[C@@H]1C)[C@H]1O[C@]2(C=C[C@@H](O)[C@]3(CC[C@@](C)([C@H]4CC[C@](O)(CC)[C@H](C)O4)O3)O2)[C@H](C)C[C@@H]1C [Sal, salinomycin, reference compound]
stability in the presence of iron(II) over time [1]: formation of byproducts
endogenous levels of GSH [2]: diminution of endogenous levels of the ROS scavenger glutathione (GSH)
lysosomal membrane permeabilization (release of lysosomal dextran) (HMLER CD24^low cells): induced a permeabilization of the lysosomal membrane
